Assay results: patent EP2140864A2 (H. Lundbeck A/S, priority 2001, dated 2002)
Where two headings read alike, the source gives them in different places.

Assays:
[1] = target: T1, human GAL3 receptor (Homo sapiens, UniProt O60755); test: Radioligand binding at cloned human GAL3 receptor
T1 construct: expressed in transfected cells
T1 sequence (O60755 1-368): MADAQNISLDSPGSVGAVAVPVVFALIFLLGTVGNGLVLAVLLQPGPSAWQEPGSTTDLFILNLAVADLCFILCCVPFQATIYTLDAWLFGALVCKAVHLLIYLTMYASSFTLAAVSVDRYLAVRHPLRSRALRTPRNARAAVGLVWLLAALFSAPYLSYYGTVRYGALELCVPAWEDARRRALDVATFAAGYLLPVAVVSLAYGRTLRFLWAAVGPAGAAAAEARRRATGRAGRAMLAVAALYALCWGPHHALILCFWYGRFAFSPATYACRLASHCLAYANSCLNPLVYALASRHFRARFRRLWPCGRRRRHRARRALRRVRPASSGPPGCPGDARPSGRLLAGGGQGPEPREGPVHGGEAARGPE
In short: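 Membranes from LM(tk-) cells stably expressing human GAL3, prepared in binding buffer (HEPES-based, pH 7.4), used for radioligand binding. Solvent at final assay concentration: 3% DMSO for indolones, 1% ethanol/0.09% pluronic F-127 for pyrimidines. Binding data analysed by nonlinear regression.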

[2] = target: T2, human 5HT1B (Homo sapiens, UniProt P28222); test: Radioligand binding, 5HT1B receptor ([3H]-serotonin)
T2 construct: expressed in transfected cells
Description: Human 5HT1B, 5HT1D, 5HT1E, 5HT1F, and 5HT7 Receptors: The cell lysates of LM(tk-) clonal cell line stably transfected with the genes encoding each of these 5HT receptor-subtypes were prepared as described above. Cell membranes were suspended in 50mM Tris-HCl buffer (pH 7.4 at 37°C) containing 10 mM MgCl2, 0.2 mM EDTA, 10 µM pargyline, and 0.1% ascorbate. […] Nonspecific binding was determined in the presence of 10 µM serotonin. The bound radioligand was separated by filtration through GF/B filters using a cell harvester.
(§1) Binding data were analyzed using nonlinear regression and statistical techniques available in the GraphPAD Prism package (San Diego, CA). Enzymatic assay data were derived from a standard curve of reference compound data.

[3] = target: T3, rat 5HT2C receptor (Rattus norvegicus, UniProt P08909); test: Radioligand binding, 5HT2C receptor
T3 construct: expressed in transfected cells
T3 sequence (P08909 33-460): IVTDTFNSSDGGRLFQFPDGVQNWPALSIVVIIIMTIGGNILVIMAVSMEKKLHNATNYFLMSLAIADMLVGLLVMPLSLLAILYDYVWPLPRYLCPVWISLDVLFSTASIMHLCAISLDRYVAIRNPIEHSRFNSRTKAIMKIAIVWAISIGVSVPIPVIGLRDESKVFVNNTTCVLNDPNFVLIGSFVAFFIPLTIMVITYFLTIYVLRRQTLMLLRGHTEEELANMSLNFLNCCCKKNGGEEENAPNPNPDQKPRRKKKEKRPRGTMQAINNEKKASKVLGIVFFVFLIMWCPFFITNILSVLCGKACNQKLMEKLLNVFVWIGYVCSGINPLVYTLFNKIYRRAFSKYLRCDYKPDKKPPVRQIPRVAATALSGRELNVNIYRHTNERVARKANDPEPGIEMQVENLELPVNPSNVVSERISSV
Description: (§2) Other 5-HT Receptors: Other serotonin receptor binding assays were performed according to published methods: rat 5HT2C receptor (Julius et al., 1988); and 5-HT6 (Monsma, et al., 1993). The binding assays using the 5-HT4 receptor were performed according to the procedures described in U.S. Patent No. 5,766,879, the disclosure of which is hereby incorporated by reference in its entirety into this application.
as §1

[4] = target: T4, human 5HT4 receptor (Homo sapiens, UniProt Q13639); test: Radioligand binding, 5-HT4 receptor
T4 construct: expressed in transfected cells
Description: as §2, §1

[5] = pyrimidines, cloned human receptor, read-out: Ki GalR3
[6] = Table 8; Ki h5HT1B divided by Ki hGAL3
[7] = Table 8; Ki r5HT2C divided by Ki hGAL3
[8] = Table 8; Ki h5HT4 divided by Ki hGAL3
[9] = indolones, cloned human receptor, read-out: Ki GalR3

T2 sequence (P28222 whole entry): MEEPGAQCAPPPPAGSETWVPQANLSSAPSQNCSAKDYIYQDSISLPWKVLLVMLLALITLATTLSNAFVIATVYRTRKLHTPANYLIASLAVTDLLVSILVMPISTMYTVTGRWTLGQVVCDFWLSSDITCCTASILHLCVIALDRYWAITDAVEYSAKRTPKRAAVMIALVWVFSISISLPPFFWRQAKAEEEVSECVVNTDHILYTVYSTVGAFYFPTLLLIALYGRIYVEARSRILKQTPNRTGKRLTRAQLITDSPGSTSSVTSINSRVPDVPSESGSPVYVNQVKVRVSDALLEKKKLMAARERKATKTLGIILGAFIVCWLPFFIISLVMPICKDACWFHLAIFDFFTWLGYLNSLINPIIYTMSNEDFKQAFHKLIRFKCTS
T4 sequence (Q13639 whole entry): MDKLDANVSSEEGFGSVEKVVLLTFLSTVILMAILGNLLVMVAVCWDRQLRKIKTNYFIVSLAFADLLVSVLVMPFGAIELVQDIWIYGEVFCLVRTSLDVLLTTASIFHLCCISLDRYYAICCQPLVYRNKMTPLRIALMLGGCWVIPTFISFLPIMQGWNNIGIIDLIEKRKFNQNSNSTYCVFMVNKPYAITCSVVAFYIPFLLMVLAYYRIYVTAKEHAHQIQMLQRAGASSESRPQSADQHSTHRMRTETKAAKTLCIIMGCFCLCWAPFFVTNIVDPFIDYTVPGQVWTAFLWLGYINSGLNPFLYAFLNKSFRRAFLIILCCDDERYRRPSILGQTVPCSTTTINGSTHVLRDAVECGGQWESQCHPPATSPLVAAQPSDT

SMILES	Ki ([1]; Table 7, read-out: hGAL3 Ki) [nM]	Ki ([1]; Table 9, read-out: hGAL3 Ki) [nM]	Ki [1, 5] [nM]	Ki ([2]; Table 7; read-out: h5HT1B Ki) [nM]	selectivity ratio h5HT1B [2, 6]	Ki ([3]; Table 7; read-out: r5HT2C Ki) [nM]	selectivity ratio r5HT2C [3, 7]	Ki ([4]; Table 7; read-out: h5HT4 Ki) [nM]	selectivity ratio h5HT4 [4, 8]	Ki [1, 9] [nM]	GAL1/GAL3 Ki ratio ([1]; Ki at GAL1 divided by Ki at human GAL3)	Ki ([1]; read-out: Ki GalR3, pyrimidines, cloned human receptor) [nM]	Ki ([1]; read-out: hGAL3 Ki, Table 7) [nM]	Ki ([1]; read-out: hGAL3 Ki, Table 9) [nM]	Ki ([2]; read-out: h5HT1B Ki; Table 7) [nM]	Ki ([3]; read-out: r5HT2C Ki; Table 7) [nM]	Ki ([4]; read-out: h5HT4 Ki; Table 7) [nM]
Cc1ccc(Nc2cc(N3CCCCC3)nc(N(C)CCc3c[nH]c4ccccc34)n2)cc1 [Example 11]	91	91	91	101	1	802	9	1310	14								
O=C1C(=Nc2ccc(Br)cc2)c2ccccc2N1c1ccccc1 [Example 98, 3-[(4-BROMOPHENYL)IMINO]-1-PHENYL-1,3-DIHYDRO-2H-INDOL-2-ONE]	38	38		2420	>30	2260	>30	1210	>30	38							
O=C1C(=Nc2ccc(C(F)(F)F)cc2)c2ccccc2N1c1ccccc1 [Example 95, 1-PHENYL-3-[[4-(TRIFLUOROMETHYL)PHENYL]IMINO]-1,3-DIHYDRO-2H-INDOL-2-ONE]	29	29		5230	>100	3470	>100	3030	>100	29							
O=C1C(=Nc2ccc(Cl)cc2)c2ccccc2N1c1ccccc1 [Example 97, 3-[(4-CHLOROPHENYL)IMINO]-1-PHENYL-1,3-DIHYDRO-2H-INDOL-2-ONE]	51	51		5060	>30	1950	>30	2550	>30	51							
O=C1C(=Nc2cc(Cl)cc(Cl)c2)c2ccccc2N1c1ccccc1 [Example 103, 3-[(3,5-DICHLOROPHENYL)IMINO]-1-PHENYL-1,3-DIHYDRO-2H-INDOL-2-ONE]										68							
O=C1C(=Nc2cccc(C(F)(F)F)c2)c2ccccc2N1c1ccccc1 [Example 92, 1-PHENYL-3- [[3-(TRIFLUOROMETHYL)PHENYL]IMINO]-1,3-DIHYDRO-2H-INDOL-2-ONE]					>100				2								
Cc1ccc(Nc2cc(N3CCCCC3)nc(N3CCN(c4ncccc4C(F)(F)F)CC3)n2)cc1 [Example 34]	23	23	23	1060	>30	2080	>30	20800	>100		39						
CN(C)c1cc(Nc2ccc(Cl)c(Cl)c2)nc(Nc2ccccc2)n1 [Example 60]	86	86	86	5460	>30	1780	21	1180	14								
COC[C@@H]1[C@@H](c2ccccc2)OCCN1c1nc(Nc2ccc(C)cc2)cc(N2CCCCC2)n1 [Example 49]					>30		>30		>30			211	211	211	8450	6690	13200
O=C1C(=Nc2cccc(Cl)c2)c2ccccc2N1c1ccccc1 [Example 94, 3-[(3-CHLOROPHENYL)IMINO]-1-PHENYL-1,3-DIHYDRO-2H-INDOL-2-ONE]	49	49		3350	>30	4100	>30	4120	>30	49							
COc1cccc(Nc2cc(N3CCCCC3)nc(N(C)CCc3c[nH]c4ccccc34)n2)c1 [Example 17]	87	87	87	407	5	562	6	2610	30								
Cc1ccc(Nc2cc(N3CCCCC3)nc(N(C)CCc3ccccc3)n2)cc1 [Example 22]	28	28	28	1980	>30	1720	>30	2460	>30								
CN(CCc1c[nH]c2ccccc12)c1nc(Nc2ccc(F)c(F)c2)cc(N2CCCCC2)n1 [Example 15]	73	73	73	487	7	572	8	2300	>30								
Cc1ccc(Nc2cc(N(C)C)nc(N(C)CCc3c[nH]c4ccccc34)n2)cc1 [Example 77]	79	79	79	365	5	456	6	1320	17								
